Data reported in ChEMBL document CHEMBL1154258, “Discovery and optimization of potent and selective functional antagonists of the human adenosine A2B receptor” (Bioorg Med Chem Lett, 2009).

Columns and labels:
Adenosine receptor A2a = Adenosine receptor A2a (Homo sapiens, UniProt P29274); assay: Antagonist activity at human adenosine A2A receptor expressed in CHOK1 cells assessed as inhibition of calcium mobilization by FLIPR assay; type: functional, cell-based, CHO-K1
Adenosine receptor A2b = biological target: T1, Adenosine receptor A2b (Homo sapiens, UniProt P29275); assay: Antagonist activity at human adenosine A2B receptor expressed in CHOK1 cells assessed as inhibition of calcium mobilization by FLIPR assay; type: functional, cell-based, CHO-K1
T1 sequence (P29275 whole entry): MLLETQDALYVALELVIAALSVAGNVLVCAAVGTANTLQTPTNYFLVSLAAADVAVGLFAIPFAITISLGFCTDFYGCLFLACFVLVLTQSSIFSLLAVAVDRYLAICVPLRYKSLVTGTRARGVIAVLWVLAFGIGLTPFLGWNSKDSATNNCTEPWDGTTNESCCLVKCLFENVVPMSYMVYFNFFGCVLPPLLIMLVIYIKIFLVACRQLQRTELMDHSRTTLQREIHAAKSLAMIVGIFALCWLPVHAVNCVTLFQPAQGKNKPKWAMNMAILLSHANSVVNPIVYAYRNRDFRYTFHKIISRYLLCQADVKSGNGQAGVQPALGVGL

Plasma = assay: Clearance in human plasma
[1] = Half life in po dosed rat; type: ADME, organism-based; settings: in vivo
Rattus norvegicus = assay: Volume of distribution in po dosed rat; type: ADME, organism-based; settings: in vivo
[2] = Oral bioavailability in rat; type: ADME, organism-based; settings: in vivo
[3] = Permeability across human Caco-2 cells; type: ADME, cell-based; settings: read-out: permeability
Homo sapiens = species on record: Homo sapiens; assay: Protein binding in human plasma; settings: read-out: PPB (converted)
[4] = Clearance in po dosed rat; type: ADME, organism-based; settings: in vivo
[5] = biological target: Voltage-gated inwardly rectifying potassium channel KCNH2 (Homo sapiens, UniProt Q12809); assay: Inhibition of human ERG at 30 uM by patch clamp method
Sequence of Voltage-gated inwardly rectifying potassium channel KCNH2 (Q12809 whole entry): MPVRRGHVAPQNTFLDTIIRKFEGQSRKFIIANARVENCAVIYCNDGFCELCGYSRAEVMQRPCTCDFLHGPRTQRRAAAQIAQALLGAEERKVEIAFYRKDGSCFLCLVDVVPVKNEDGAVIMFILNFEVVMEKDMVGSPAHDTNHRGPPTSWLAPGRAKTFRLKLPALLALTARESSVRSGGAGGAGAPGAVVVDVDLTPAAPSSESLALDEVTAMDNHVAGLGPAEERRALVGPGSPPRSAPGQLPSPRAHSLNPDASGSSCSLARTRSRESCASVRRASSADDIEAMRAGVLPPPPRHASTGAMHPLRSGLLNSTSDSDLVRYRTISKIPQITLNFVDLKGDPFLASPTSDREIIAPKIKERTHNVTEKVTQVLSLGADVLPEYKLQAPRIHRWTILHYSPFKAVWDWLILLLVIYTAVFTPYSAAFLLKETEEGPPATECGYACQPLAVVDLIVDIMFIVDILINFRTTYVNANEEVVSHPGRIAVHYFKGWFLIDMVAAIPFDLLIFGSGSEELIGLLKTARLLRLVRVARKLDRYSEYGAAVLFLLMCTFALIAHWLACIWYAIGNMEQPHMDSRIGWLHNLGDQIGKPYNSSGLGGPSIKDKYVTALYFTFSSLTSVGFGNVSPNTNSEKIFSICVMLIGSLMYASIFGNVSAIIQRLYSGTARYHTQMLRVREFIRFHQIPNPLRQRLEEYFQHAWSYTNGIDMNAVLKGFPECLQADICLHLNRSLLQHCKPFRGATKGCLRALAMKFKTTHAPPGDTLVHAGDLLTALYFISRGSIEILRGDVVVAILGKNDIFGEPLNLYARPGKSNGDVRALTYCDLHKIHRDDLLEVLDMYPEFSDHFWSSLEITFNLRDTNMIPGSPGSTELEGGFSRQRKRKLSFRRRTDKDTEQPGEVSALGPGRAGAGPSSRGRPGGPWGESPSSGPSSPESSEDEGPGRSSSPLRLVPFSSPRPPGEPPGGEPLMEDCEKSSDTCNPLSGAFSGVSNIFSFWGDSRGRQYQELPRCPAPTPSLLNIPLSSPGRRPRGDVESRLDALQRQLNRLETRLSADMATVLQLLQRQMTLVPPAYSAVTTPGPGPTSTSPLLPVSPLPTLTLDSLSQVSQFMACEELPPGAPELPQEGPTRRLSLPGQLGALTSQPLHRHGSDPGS

Sequence of Adenosine receptor A2a (P29274 whole entry): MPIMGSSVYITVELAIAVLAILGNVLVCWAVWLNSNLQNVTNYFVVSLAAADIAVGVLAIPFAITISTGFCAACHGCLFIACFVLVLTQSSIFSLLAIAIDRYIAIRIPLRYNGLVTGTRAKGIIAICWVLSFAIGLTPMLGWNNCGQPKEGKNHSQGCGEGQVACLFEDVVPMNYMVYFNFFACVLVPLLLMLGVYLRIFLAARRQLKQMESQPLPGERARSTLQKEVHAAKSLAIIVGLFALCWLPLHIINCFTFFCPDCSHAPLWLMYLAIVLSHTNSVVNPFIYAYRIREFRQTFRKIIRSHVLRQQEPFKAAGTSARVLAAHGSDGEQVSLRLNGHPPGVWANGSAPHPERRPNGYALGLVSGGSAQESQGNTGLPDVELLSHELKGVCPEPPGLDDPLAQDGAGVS

O=C(NC1CC1)c1nc(NCc2cccnc2)nc2ccsc12
IC50 (Adenosine receptor A2a): 710 nM | IC50 (Adenosine receptor A2b): 256 nM

CC(C)NC(=O)c1nc(NCc2cccnc2)nc2ccsc12
IC50 (Adenosine receptor A2a): 2610 nM | IC50 (Adenosine receptor A2b): 309 nM

Cc1nc(C(=O)c2ccc(C)s2)c2sccc2n1
IC50 (Adenosine receptor A2a): 7850 nM | IC50 (Adenosine receptor A2b): > 10000 nM

CCc1nc(C(=O)c2ccc(C)s2)c2sccc2n1
IC50 (Adenosine receptor A2a): 3850 nM | IC50 (Adenosine receptor A2b): 3670 nM

Cc1ccc(C(=O)c2nc(N)nc3ccsc23)s1
IC50 (Adenosine receptor A2a): 220 nM | IC50 (Adenosine receptor A2b): 758 nM

CCNc1nc(C(=O)c2ccc(C)s2)c2sccc2n1
IC50 (Adenosine receptor A2a): 126 nM | IC50 (Adenosine receptor A2b): 1260 nM

Cc1ccc(C(=O)c2nc(NCc3ccncn3)nc3ccsc23)s1
IC50 (Adenosine receptor A2a): 116 nM | IC50 (Adenosine receptor A2b): 92 nM

Cc1ccc(C(=O)c2nc(NC(C)c3ccccn3)nc3ccsc23)s1 (stereo not drawn)
IC50 (Adenosine receptor A2a): 118 nM | IC50 (Adenosine receptor A2b): 19 nM

CNc1cc2nc(NCc3cccnc3)nc(C(=O)c3cccs3)c2s1
CL (Plasma): 28.3 mL/min/kg | half-life [1]: 0.93 h | Vd (Rattus norvegicus): 2.2 L/kg | bioavailability [2]: 2% | IC50 (Adenosine receptor A2a): 965 nM | IC50 (Adenosine receptor A2b): 3.5 nM

Cc1ccc(C(=O)c2nc(NCC3CCCCC3)nc3ccsc23)s1
IC50 (Adenosine receptor A2a): > 10000 nM | IC50 (Adenosine receptor A2b): > 10000 nM

Cc1ccc(C(=O)c2nc(NCc3ccccc3)nc3ccsc23)s1
IC50 (Adenosine receptor A2a): 7150 nM | IC50 (Adenosine receptor A2b): 5580 nM

Cc1ccc(C(=O)c2nc(NC(=O)c3cccnc3)nc3ccsc23)s1
IC50 (Adenosine receptor A2a): 161 nM | IC50 (Adenosine receptor A2b): 287 nM

O=C(c1nc(NCc2cccnc2)nc2ccsc12)N1CCCC1
IC50 (Adenosine receptor A2a): 6140 nM | IC50 (Adenosine receptor A2b): 189 nM

Cc1ccc(C(=O)c2nc(NCCc3ccccn3)nc3ccsc23)s1
IC50 (Adenosine receptor A2a): 351 nM | IC50 (Adenosine receptor A2b): 944 nM

Cc1ccc(C(=O)c2nc(NCCc3cccnc3)nc3ccsc23)s1
IC50 (Adenosine receptor A2a): 177 nM | IC50 (Adenosine receptor A2b): 450 nM

Cc1ccc(C(=O)c2nc(N(C)Cc3cccnc3)nc3ccsc23)s1
IC50 (Adenosine receptor A2a): 2270 nM | IC50 (Adenosine receptor A2b): 4140 nM

Cc1ccc(C(=O)c2nc(NC(C)c3ccccc3)nc3ccsc23)s1 (stereo not drawn)
IC50 (Adenosine receptor A2a): 1080 nM | IC50 (Adenosine receptor A2b): 414 nM

Cc1ccc(C(=O)c2nc(NCc3ccccn3)nc3ccsc23)s1
IC50 (Adenosine receptor A2a): 186 nM | IC50 (Adenosine receptor A2b): 43 nM

Cc1ccc(C(=O)c2nc(NCc3cccnc3)nc3ccsc23)s1
IC50 (Adenosine receptor A2a): 990 nM | IC50 (Adenosine receptor A2b): 55 nM

O=C(c1nccs1)c1nc(NCc2cccnc2)nc2ccsc12
IC50 (Adenosine receptor A2a): 732 nM | IC50 (Adenosine receptor A2b): 176 nM

O=C(c1cncs1)c1nc(NCc2cccnc2)nc2ccsc12
IC50 (Adenosine receptor A2a): 1720 nM | IC50 (Adenosine receptor A2b): 148 nM

Cc1ccc(C(=O)c2ncnc3ccsc23)s1
IC50 (Adenosine receptor A2a): 6690 nM | IC50 (Adenosine receptor A2b): 5380 nM

Cc1ccc(C(=O)c2nc(NC(C)c3cccnc3)nc3ccsc23)s1 (stereo not drawn)
IC50 (Adenosine receptor A2a): 99 nM | IC50 (Adenosine receptor A2b): 17 nM

O=C(c1ccc(Cl)s1)c1nc(NCc2cccnc2)nc2ccsc12
IC50 (Adenosine receptor A2a): 1540 nM | IC50 (Adenosine receptor A2b): 487 nM

Cc1ccc(C(=O)c2nc(NCc3cccnc3)nc3ccsc23)o1
IC50 (Adenosine receptor A2a): 1250 nM | IC50 (Adenosine receptor A2b): 468 nM

O=C(c1cccs1)c1nc(NCc2cccnc2)nc2ccsc12
IC50 (Adenosine receptor A2a): 51 nM | IC50 (Adenosine receptor A2b): 18 nM

O=C(c1ccsc1)c1nc(NCc2cccnc2)nc2ccsc12
IC50 (Adenosine receptor A2a): 405 nM | IC50 (Adenosine receptor A2b): 148 nM

O=C(c1ccccc1)c1nc(NCc2cccnc2)nc2ccsc12
IC50 (Adenosine receptor A2a): 1620 nM | IC50 (Adenosine receptor A2b): 511 nM

Cc1ccc(C(=O)c2nc(NCc3cccnc3)nc3ccsc23)cc1
IC50 (Adenosine receptor A2a): 442 nM | IC50 (Adenosine receptor A2b): 215 nM

COc1ccc(C(=O)c2nc(NCc3cccnc3)nc3ccsc23)cc1
IC50 (Adenosine receptor A2a): 637 nM | IC50 (Adenosine receptor A2b): 1300 nM

C[C@@H](Nc1nc(C(=O)N2CCCC2)c2sccc2n1)c1cccnc1
IC50 (Adenosine receptor A2a): 6760 nM | IC50 (Adenosine receptor A2b): 3070 nM

C[C@H](Nc1nc(C(=O)N2CCCC2)c2sccc2n1)c1cccnc1
half-life [1]: 2.3 h | Papp [3]: 33 ×10⁻⁶ cm/s | fraction unbound (Homo sapiens): 0.15 | Vd (Rattus norvegicus): 3.9 L/kg | bioavailability [2]: 84% | IC50 (Adenosine receptor A2a): 468 nM | CL/F [4]: 43.3 mL/min/kg | inhibition (INH) [5]: Not Active | IC50 (Adenosine receptor A2b): 18 nM

O=C(c1ccncc1)c1nc(NCc2cccnc2)nc2ccsc12
IC50 (Adenosine receptor A2a): 1940 nM | IC50 (Adenosine receptor A2b): 869 nM

O=C(c1cccs1)c1nc(NCc2cccnc2)nc2cc(Cl)sc12
IC50 (Adenosine receptor A2a): 62 nM | IC50 (Adenosine receptor A2b): 16 nM

Nc1cc2nc(NCc3cccnc3)nc(C(=O)c3cccs3)c2s1
IC50 (Adenosine receptor A2a): > 10000 nM | IC50 (Adenosine receptor A2b): 32 nM

CCNc1cc2nc(NCc3cccnc3)nc(C(=O)c3cccs3)c2s1
IC50 (Adenosine receptor A2a): 2490 nM | IC50 (Adenosine receptor A2b): 19 nM

CN(C)c1cc2nc(NCc3cccnc3)nc(C(=O)c3cccs3)c2s1
IC50 (Adenosine receptor A2a): 1420 nM | IC50 (Adenosine receptor A2b): 39 nM

CNC(=O)c1nc(NCc2cccnc2)nc2ccsc12
IC50 (Adenosine receptor A2b): 495 nM

CCNC(=O)c1nc(NCc2cccnc2)nc2ccsc12
IC50 (Adenosine receptor A2a): 2520 nM | IC50 (Adenosine receptor A2b): 120 nM

O=C(c1cccnc1)c1nc(NCc2cccnc2)nc2ccsc12
IC50 (Adenosine receptor A2a): 1170 nM | IC50 (Adenosine receptor A2b): 109 nM

O=C(NC1CCCCC1)c1nc(NCc2cccnc2)nc2ccsc12
IC50 (Adenosine receptor A2b): 571 nM

CC(Nc1nc(C(=O)N2CCCC2)c2sccc2n1)c1cccnc1 (racemic)
IC50 (Adenosine receptor A2a): 2350 nM | IC50 (Adenosine receptor A2b): 13 nM
